Reference: patent US10064907B2, “Process to improve feed efficiency and carcass characteristics of animals” (Oligo Basics Agroindustrial LTDA., priority 2012, dated 2018)
Marks after values point to notes of the source that are not given here.

Key:
[1] = rats, supplemented vs non-supplemented animals; cited from earlier work
[2] = Carcass characteristics of steers, Composition versus Monensin (Example 3); format: in vivo; details: Monensin 223 mg/head/day, Composition 500 ppm in total feed, treatments differ P < 0.05
Description: The two groups were treated with Monensin (223 mg/head/day) and the Composition (500 ppm in total feed). Monensin is the antibiotic used in the industry as a standard to affect microbial populations in the rumen of the animals. The change in microbial populations in the rumen shifts the fermentation end products, which results in an improvement in the energy efficiency of the animal. By comparing the Composition to the industry standard, the effects due to changes in microbial populations can be deleted. Therefore, if differences were found between Monensin treated animals and the Composition treated animals, those differences would not arise from the antimicrobial effects, as both products inhibit the same type of bacteria (gram positive). The Composition was 40% cashew nut shell liquid, 12% castor oil and 48% expanded vermiculite. Dressing percent is the percentage of the carcass in relation to the total weight of the animal. Carcass quality grade goes from 1 to 9 to indicate, in increasing order, the amount of intramuscular fat. Meats with higher levels of intramuscular fat are more tender and, therefore, more expensive. Also, as the amount of energy found per unit of fat is twice as much as the amount of energy found per unit of carbohydrate and […], meats with more intramuscular fat are more energy dense than […]. […]

Row | SMILES | effects on feed efficiency [1] | Carcass quality grade ([2]; grade from 1 to 9, increasing intramuscular fat, steers fed from 322 kg to 617 kg) | Dressing percent (percentage of the carcass in relation to the total weight of the animal) ([2]; steers fed from 322 kg to 617 kg live weight)
1 | CCCCCCCCCCCCCCCc1cccc(O)c1C(=O)O [anacardic acid] | no differences |  | 
2 | CC[C@@]1([C@@H]2O[C@@H]([C@H]3O[C@@](O)(CO)[C@H](C)C[C@@H]3C)C[C@@H]2C)CC[C@H]([C@]2(C)CC[C@]3(C[C@H](O)[C@@H](C)[C@@H]([C@@H](C)[C@@H](OC)[C@H](C)C(=O)O)O3)O2)O1 [Monensin] |  | 3.18^a | 60^a percent
